Test system: rat TTR gene
Experiment: In vivo editing of TTR in rat liver after LNP delivery (NGS, % editing)
Design: species or system rat (Sprague-Dawley)
Method: LNPs were prepared using various amine lipids in a 4-component lipid system consisting of an ionizable lipid (e.g., an amine lipid), DSPC, cholesterol and a PEG lipid (e.g., PEG2K-DMG, C13 Ether, C14 Ether). In assays for percent liver editing in rats, Cas9 mRNA and chemically modified sgRNA targeting a rat sequence were formulated in LNPs, at either a 1:1 w/w ratio or a 1:2 w/w sgRNA:Cas9 mRNA ratio.
The lipid components were dissolved in 100% ethanol with the lipid component molar ratios described below. The chemically modified sgRNA and Cas9 mRNA were combined and dissolved in 25 mM citrate, 100 mM NaCl, pH 5.0, resulting in a concentration of total RNA cargo of approximately 0.45 mg/mL. The LNPs were formulated with an N:P ratio of about 6, with the ratio of chemically modified sgRNA:Cas9 mRNA at either a 1:1 or 1:2 w/w ratio as described below.
The LNPs were formed by an impinging jet mixing of the lipid in ethanol with two volumes of RNA solution and one volume of water. First, the lipid in ethanol is mixed through a mixing cross with the two volumes of RNA solution. Then, a fourth stream of water is mixed with the outlet stream of the cross through an inline tee. (See, e.g., WO2016010840, FIG. 2). The LNPs were held for 1 hour at room temperature, and further diluted with water (approximately 1:1 v/v). Diluted LNPs were buffer exchanged into 50 mM Tris, 45 mM NaCl, 5% (w/v) sucrose, pH 7.5 (TSS) and concentrated as needed by methods known in the art. The resulting mixture was then filtered using a 0.2 μm sterile filter. The final LNP was stored at 4° C. or −80° C. until further use.
Sprague-Dawley female rats, ranging from 6-10 weeks of age were used in each study. Animals were weighed and dosed based on individual body weight measured the morning of dosing. LNPs were dosed via the lateral tail vein in a volume of 2 mL per kilogram of animal body weight. The animals were periodically observed for adverse effects for at least 24 hours post dose.
For studies measuring in vivo editing in liver, Sprague-Dawley female rats were dosed at 0.1 mpk or 0.03 mpk, unless otherwise noted. Animals were euthanized at 6 or 7 days by carbon dioxide asphyxiation and a heart clip or by ex sanguination via cardiac puncture under isoflourane anesthesia. Blood was collected into serum separator tubes. Liver tissue was collected. Genomic DNA was isolated from the liver tissue for editing measurement by Next-Generation Sequencing (NGS).
In brief, to quantitatively determine the efficiency of editing at the target location in the genome, genomic DNA was isolated and deep sequencing was utilized to identify the presence of insertions and deletions introduced by gene editing.
PCR primers were designed around the target site (e.g., TTR), and the genomic area of interest was amplified. Additional PCR was performed according to the manufacturer's protocols (Illumina) to add the necessary chemistry for sequencing. The amplicons were sequenced on an Illumina MiSeq instrument. The reads were aligned to the […] after eliminating those having low quality scores. The resulting files containing the reads were mapped to the reference genome (BAM files), where reads that overlapped the target region of interest were selected and the number of wild type reads versus the number of reads which contain an insertion, substitution, or deletion was calculated.
The editing percentage (e.g., the “indel efficiency” or “percent indels” or “% editing” or “% indel”) can be defined as the total number of sequence reads with insertions or deletions over the total number of sequence reads, including wild type.
In vivo editing efficiency for materials delivered with formulations including various amine lipid (or ionizable lipid) compounds in Experiments 1 through 14 as described in Tables 3 and 4 was assessed. Editing was measured using G000534 (SEQ ID NO: 5) which targets the rat TTR gene. […]

[1] = Experiment 14, 0.03 mpk, LNP with C13 Ether
[2] = Experiment 12, 0.04 mpk, LNP with PEG2K-DMG
[3] = Experiment 5, 0.1 mpk, LNP with PEG2K-DMG
[4] = Experiment 4, 0.1 mpk, LNP with PEG2K-DMG
[5] = Experiment 11, 0.1 mpk, LNP with PEG2K-DMG
[6] = Experiment 7, 0.1 mpk, LNP with PEG2K-DMG
[7] = Experiment 2, 0.1 mpk, LNP with PEG2K-DMG
[8] = Experiment 10, 0.1 mpk, LNP with PEG2K-DMG
[9] = Experiment 9, 0.1 mpk, LNP with PEG2K-DMG

## CCCCCCCCC(CCCCCCCC)C(=O)OCC(COC(=O)NCCN(CC)CC)COC(=O)C(CCCCCCCC)CCCCCCCC [Compound 40, 2-((((2-(diethylamino)ethyl)carbamoyl)oxy)methyl)propane-1,3-diyl bis(2-octyldecanoate)]
[1]
  Mean % editing: 1.0%

## CCCCCCCCC(CCCCCCCC)OC(=O)CCCC(=O)OCC(COC(=O)CCCC(=O)OC(CCCCCCCC)CCCCCCCC)COC(=O)OCCCN1CCCC1 [Compound 33, di(heptadecan-9-yl) O,O′-(2-((((3-(pyrrolidin-1-yl)propoxy)carbonyl)oxy)methyl)propane-1,3-diyl) diglutarate]
[2]
  Mean % editing: 20.0%
NGS, dose 0.03 mpk, LNP with G000534 sgRNA and Cas9 mRNA 1:2 w/w, 3% C13 Ether (Compound 53: 3% PEG2K-DMG), N=5 (Compound 33: N=4)
  Mean % editing in rat liver: 12.2%

## CCCCC/C=C\C/C=C\CCCCCCCC(=O)OCC(CCCCCCCCC(=O)OC(CCCCCCCC)CCCCCCCCC)COC(=O)CCC(CCCCCCCC)OC(=O)NCCN1CCCC1 (stereo not drawn) [Compound 25, 11-(octadecan-9-yloxy)-11-oxo-2-(((4-(((2-(pyrrolidin-1-yl)ethyl)carbamoyl)oxy)dodecanoyl)oxy)methyl)undecyl (9Z,12Z)-octadeca-9,12-dienoate]
[3]
  Mean % editing: 17.0%

## CCCCC/C=C\C/C=C\CCCCCCCC(=O)OCC(CCCCC(=O)OC(CCCC)CCCC)COC(=O)OCCCN(C)CC (stereo not drawn) [Compound 13, 2-((((3-(ethyl(methyl)amino)propoxy)carbonyl)oxy)methyl)-7-(nonan-5-yloxy)-7-oxoheptyl (9Z,12Z)-octadeca-9,12-dienoate]
[4]
  Mean % editing: 20.9%

## CCCCCCCCC(CCCCCCCC)OC(=O)CCCC(=O)OCC(COC(=O)CCCC(=O)OC(CCCCCCCC)CCCCCCCC)OC(=O)NCCN(CC)CC [Compound 35, O,O′-(2-(((2-(diethylamino)ethyl)carbamoyl)oxy)propane-1,3-diyl) di(heptadecan-9-yl) diglutarate]
[1]
  Mean % editing: 10.3%

## CCCCC/C=C\C/C=C\CCCCCCCC(=O)OCC(CCCCC(=O)OC(CCCC)CCCC)COC(=O)OCCCN(CC)CC (stereo not drawn) [Compound 14, 2-((((3-(diethylamino)propoxy)carbonyl)oxy)methyl)-7-(nonan-5-yloxy)-7-oxoheptyl (9Z,12Z)-octadeca-9,12-dienoate]
[4]
  Mean % editing: 16.8%

## CCCCCCCCCOC(=O)CCCCCCCN(CCO)CCCCCCCC(=O)OC(CCCCCCCC)CCCCCCCC [Compound 55]
[5]
  Mean % editing: 13.2%

## CCCCCCCCOC(CCC(=O)OCC(COC(=O)CC(CCCC)CCCCCC)COC(=O)OCCCN(CC)CC)OCCCCCCCC (stereo not drawn) [Compound 43, 3-((4,4-bis(octyloxy)butanoyl)oxy)-2-((((3-(diethylamino)propoxy)carbonyl)oxy)methyl)propyl 3-butylnonanoate]
[6]
  Mean % editing: 57.5%

## CCCCC/C=C\C/C=C\CCCCCCCC(=O)OCC(CCCCCCCCC(=O)OC(CCCCCCCC)CCCCCCCCC)COC(=O)CCC(CCCCCCCC)OC(=O)NCCN(C)CC (stereo not drawn) [Compound 24, 3-methyl-15-(9-(octadecan-9-yloxy)-9-oxononyl)-9-octyl-7,12-dioxo-8,13-dioxa-3,6-diazahexadecan-16-yl (9Z,12Z)-octadeca-9,12-dienoate]
[3]
  Mean % editing: 3.6%

## CCCCC/C=C\C/C=C\CCCCCCCC(=O)OCC(COC(=O)CCCC(=O)OC(CCCCCCCC)CCCCCCCC)COC(=O)NCCN(CC)CC (stereo not drawn) [Compound 58]
Experiment 1, 0.1 mpk, LNP with PEG2K-DMG
  Mean % editing: 44.7%
[7]
  Mean % editing: 60.4%
[8]
  Mean % editing: 56.5%

## CCCCC/C=C\C/C=C\CCCCCCCC(=O)OCC(CCCCCCC(=O)OC(CCCCCCCC)CCCCCCCC)COC(=O)OCCCN(CC)CC (stereo not drawn) [Compound 16, 2-((((3-(diethylamino)propoxy)carbonyl)oxy)methyl)-9-(heptadecan-9-yloxy)-9-oxononyl (9Z,12Z)-octadeca-9,12-dienoate]
[9]
  Mean % editing: 14.9%

## CCCCC/C=C\C/C=C\CCCCCCCCC(COC(=O)CCCCCC(=O)OC(CCCCCCCC)CCCCCCCC)COC(=O)NCCN(CC)CC (stereo not drawn) [Compound 23, 1-((11Z,14Z)-2-((((2-(diethylamino)ethyl)carbamoyl)oxy)methyl)icosa-11,14-dien-1-yl) 7-(heptadecan-9-yl) heptanedioate]
Experiment 6, 0.1 mpk, LNP with PEG2K-DMG
  Mean % editing: 55.3%
[5]
  Mean % editing: 54.0%

## CCCCC/C=C\C/C=C\CCCCCCCC(=O)OCC(CCCCCCCCC(=O)OC(CCCCCC)CCCCCC)COC(=O)OCCCN(CC)CC (stereo not drawn) [Compound 19, 2-((((3-(diethylamino)propoxy)carbonyl)oxy)methyl)-11-oxo-11-(tridecan-7-yloxy)undecyl (9Z,12Z)-octadeca-9,12-dienoate]
[9]
  Mean % editing: 14.4%

## CCCCCCCCC(CCCCCCCC)OC(=O)CCCCCCC(=O)OCC(COC(=O)CCCCCCC(=O)OC(CCCCCCCC)CCCCCCCC)COC(=O)NCCCN(CC)CC [Compound 61]
Experiment 13, 0.03 mpk, LNP with PEG2K-DMG
  Mean % editing: 0.2%

## CCCCCCCCC(CCCCCCCC)CC(=O)OCCC(=O)OCC(COC(=O)CCCC(=O)OC(CCCCCCCC)CCCCCCCC)COC(=O)NCCN(CC)CC (stereo not drawn) [Compound 63, 3-(((2-(diethylamino)ethyl)carbamoyl)oxy)-2-(((3-((3-octylundecanoyl)oxy)propanoyl)oxy)methyl)propyl heptadecan-9-yl Glutarate]
Table 8, 0.03 mpk, LNP with C13 Ether
  Mean % editing: 0.1%

## CCCCC/C=C\C/C=C\CCCCCCCC(=O)OCC(CCCCCCC(=O)OC(CCCC)CCCC)COC(=O)OCCCN(CC)CC (stereo not drawn) [Compound 20, 2-((((3-(diethylamino)propoxy)carbonyl)oxy)methyl)-9-(nonan-5-yloxy)-9-oxononyl (9Z,12Z)-octadeca-9,12-dienoate]
[9]
  Mean % editing: 32.0%

## CCCCC/C=C\C/C=C\CCCCCCCC(=O)OCC(COC(=O)CCCC(=O)OC(CCCCCCCC)CCCCCCCC)COC(=O)OCCCN(CC)CC (stereo not drawn) [Compound 56]
[7]
  Mean % editing: 50.9%
[8]
  Mean % editing: 53.0%

## CCCCC/C=C\C/C=C\CCCCCCCC(=O)OCC(COC(=O)CCCCCC(=O)OC(CCCCCCCC)CCCCCCCC)COC(=O)OCCCN(CC)CC (stereo not drawn) [Compound 57]
[7]
  Mean % editing: 46.7%
Experiment 3, 0.1 mpk, LNP with PEG2K-DMG
  Mean % editing: 39.5%

## CCCCCCCCCCCC(=O)OCC(COC(=O)CCC(OCCCCCCCC)OCCCCCCCC)COC(=O)OCCCN(CC)CC (stereo not drawn) [Compound 41, 3-((4,4-bis(octyloxy)butanoyl)oxy)-2-((((3-(diethylamino)propoxy)carbonyl)oxy)methyl)propyl Dodecanoate]
[6]
  Mean % editing: 5.8%

## CCCCCCCCC(CCCCCCCC)OC(=O)CCCC(=O)OCC(COC(=O)CCCC(=O)OC(CCCCCCCC)CCCCCCCC)COC(=O)NCCN1CCCCC1 [Compound 28, di(heptadecan-9-yl) O,O′-(2-((((2-(piperidin-1-yl)ethyl)carbamoyl)oxy)methyl)propane-1,3-diyl) diglutarate]
[2]
  Mean % editing: 11.0%

## CCCCCCC(CCCCCC)OC(=O)CCCC(=O)OCC(COC(=O)CCCC(=O)OC(CCCCCC)CCCCCC)COC(=O)NCCN(CC)CC [Compound 37, O,O′-(2-((((2-(diethylamino)ethyl)carbamoyl)oxy)methyl)propane-1,3-diyl) di(tridecan-7-yl) diglutarate]
[2]
  Mean % editing: 38.1%

Reference: patent US20260337153A1, “IONIZABLE AMINE LIPIDS” (Intellia Therapeutics, Inc., priority 2023, published 2026)
